Data as given in PubChem BioAssay AID252 (DTP/NCI, 2004).
Values joined by “and” are separate entries in the source; they are usually repeats but may differ in a detail not shown here. Equal entries are not always repeated. Inconclusive results and toxic doses are left out.

System: BDF1 mice, intracerebral L1210 leukemia, survival T/C
Assay: NCI In Vivo Anticancer Drug Screen. Data for tumor model L1210 Leukemia (intracerebral) in B6D2F1 (BDF1) mice
Details: higher = longer survival
Outline: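 Survival measured in treated and vehicle-control tumour-bearing mice; value = T/C.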

[1] = endpoint: mean survival time, dose: 1.0 mg/kg/injection, schedule: Q01DX009 (ip), vehicle: saline
[2] = endpoint: mean survival time, dose: 4.0 mg/kg/injection, schedule: Q01DX009 (ip), vehicle: saline

In the case of `OCCN1CCN(CC/C=C2/c3ccccc3Sc3ccc(C(F)(F)F)cc32)CC1`, the T/C (endpoint: mean survival time, dose: 3.12 mg/kg/injection, schedule: Q04DX003 (ip), vehicle: saline) is reported as 113 % of control, the T/C (endpoint: mean survival time, dose: 6.25 mg/kg/injection, schedule: Q04DX003 (ip), vehicle: saline) is reported as 111 % of control and the T/C (endpoint: mean survival time, dose: 12.5 mg/kg/injection, schedule: Q04DX003 (ip), vehicle: saline) is reported as 113 % of control. The T/C (endpoint: mean survival time, dose: 25.0 mg/kg/injection, schedule: Q04DX003 (ip), vehicle: saline) was 100 % of control.
For `CCCC(=O)NC1=C(N2CC2)C(=O)C(NC(=O)CCC)=C(N2CC2)C1=O`, the T/C [1] was 105 % of control, the T/C [2] was 152 % of control and the T/C (endpoint: mean survival time, dose: 8.0 mg/kg/injection, schedule: Q01DX009 (ip), vehicle: saline) was 89 % of control.
For `CCN(CC)CCNc1ccc(CO)c2sc3ccccc3c(=O)c12`, the T/C (endpoint: mean survival time, dose: 1.0 mg/kg/injection, schedule: Q01DX005 (ip), vehicle: saline) was 97 % of control, the T/C (endpoint: mean survival time, dose: 2.0 mg/kg/injection, schedule: Q01DX005 (ip), vehicle: saline) was 96 % of control and the T/C (endpoint: mean survival time, dose: 4.0 mg/kg/injection, schedule: Q01DX005 (ip), vehicle: saline) was 100 % of control. For the same compound, the T/C (endpoint: mean survival time, dose: 8.0 mg/kg/injection, schedule: Q01DX005 (ip), vehicle: saline) was 98 % of control, the T/C (endpoint: mean survival time, dose: 16.0 mg/kg/injection, schedule: Q01DX005 (ip), vehicle: saline) was 100 % of control and the T/C (endpoint: mean survival time, dose: 32.0 mg/kg/injection, schedule: Q01DX005 (ip), vehicle: saline) was 107 % of control. For the same compound, the T/C (endpoint: mean survival time, dose: 64.0 mg/kg/injection, schedule: Q01DX005 (ip), vehicle: saline) was 123 % of control.
For `Cc1c(C)c(NC(=O)N(CCCl)N=O)c(C)c(C)c1NC(=O)N(CCCl)N=O`, the T/C (endpoint: mean survival time, dose: 15.5 mg/kg/injection, schedule: Q01DX001 (ip), vehicle: other) was 102 % of control, the T/C (endpoint: mean survival time, dose: 31.0 mg/kg/injection, schedule: Q01DX001 (ip), vehicle: other) was 98 % of control and the T/C (endpoint: mean survival time, dose: 62.0 mg/kg/injection, schedule: Q01DX001 (ip), vehicle: other) was 101 % of control. The T/C (endpoint: mean survival time, dose: 250.0 mg/kg/injection, schedule: Q01DX001 (ip), vehicle: other) was 171 % of control and 175 % of control, the T/C (endpoint: mean survival time, dose: 375.0 mg/kg/injection, schedule: Q01DX001 (ip), vehicle: other) was 182 % of control and 183 % of control and the T/C (endpoint: mean survival time, dose: 500.0 mg/kg/injection, schedule: Q01DX001 (ip), vehicle: other) was 172 % of control and 178 % of control. For the same compound, the T/C (endpoint: mean survival time, dose: 501.0 mg/kg/injection, schedule: Q01DX001 (ip), vehicle: other) was 93 % of control.
For `OC(C1CO1)C(O)C1CO1` (configuration not stated), the T/C (endpoint: mean survival time, dose: 0.65 mg/kg/injection, schedule: Q01DX009 (ip), vehicle: water) was 96 % of control, the T/C [1] was 109 % of control and 120 % of control and the T/C (endpoint: mean survival time, dose: 1.08 mg/kg/injection, schedule: Q01DX009 (ip), vehicle: water) was 110 % of control. The T/C (endpoint: mean survival time, dose: 1.8 mg/kg/injection, schedule: Q01DX009 (ip), vehicle: water) was 123 % of control, the T/C (endpoint: mean survival time, dose: 2.0 mg/kg/injection, schedule: Q01DX009 (ip), vehicle: saline) was 92 % of control and the T/C (endpoint: mean survival time, dose: 2.0 mg/kg/injection, schedule: Q03HX024 (ip), vehicle: saline) was 87 % of control. The T/C (endpoint: mean survival time, dose: 2.5 mg/kg/injection, schedule: Q01DX001 (ip), vehicle: water) was 109 % of control, the T/C [2] was 103 % of control and 92 % of control and the T/C (endpoint: mean survival time, dose: 20.0 mg/kg/injection, schedule: Q01DX001 (ip), vehicle: water) was 104 % of control. The T/C (endpoint: mean survival time, dose: 40.0 mg/kg/injection, schedule: Q01DX001 (ip), vehicle: water) was 102 % of control, the T/C (endpoint: median survival time, dose: 0.5 mg/kg/injection, schedule: Q01DX001 (oral), vehicle: saline) was 106 % of control and the T/C (endpoint: median survival time, dose: 4.0 mg/kg/injection, schedule: Q01DX001 (oral), vehicle: saline) was 115 % of control. For the same compound, the T/C (endpoint: median survival time, dose: 8.0 mg/kg/injection, schedule: Q01DX001 (oral), vehicle: saline) was 97 % of control and the T/C (endpoint: median survival time, dose: 16.0 mg/kg/injection, schedule: Q01DX001 (oral), vehicle: saline) was 86 % of control.
With `CNC(=O)NC(=O)N(C)N=O` the T/C (endpoint: mean survival time, dose: 15.0 mg/kg/injection, schedule: Q01DX001 (ip), vehicle: carboxymethylcellulose (CMC)) was 105 % of control, the T/C (endpoint: mean survival time, dose: 22.6 mg/kg/injection, schedule: Q01DX001 (ip), vehicle: carboxymethylcellulose (CMC)) was 105 % of control and the T/C (endpoint: mean survival time, dose: 34.0 mg/kg/injection, schedule: Q01DX001 (ip), vehicle: carboxymethylcellulose (CMC)) was 98 % of control. The T/C (endpoint: mean survival time, dose: 51.0 mg/kg/injection, schedule: Q01DX001 (ip), vehicle: carboxymethylcellulose (CMC)) was 112 % of control, the T/C (endpoint: mean survival time, dose: 77.0 mg/kg/injection, schedule: Q01DX001 (ip), vehicle: carboxymethylcellulose (CMC)) was 109 % of control and 111 % of control and the T/C (endpoint: mean survival time, dose: 117.0 mg/kg/injection, schedule: Q01DX001 (ip), vehicle: carboxymethylcellulose (CMC)) was 91 % of control. For the same compound, the T/C (endpoint: mean survival time, dose: 175.0 mg/kg/injection, schedule: Q01DX001 (ip), vehicle: carboxymethylcellulose (CMC)) was 87 % of control.
In the case of `N#CCCNC(=O)N(CCC#N)N=O`, the T/C (endpoint: mean survival time, dose: 167.0 mg/kg/injection, schedule: Q01DX001 (ip), vehicle: carboxymethylcellulose (CMC)) is reported as 102 % of control and the T/C (endpoint: mean survival time, dose: 250.0 mg/kg/injection, schedule: Q01DX001 (ip), vehicle: carboxymethylcellulose (CMC)) is reported as 109 % of control.
For `CN=NNc1nc[nH]c1C(N)=O`, the T/C (endpoint: mean survival time, dose: 12.5 mg/kg/injection, schedule: Q01DX Z (ip), vehicle: carboxymethylcellulose (CMC)) was 102 % of control, the T/C (endpoint: mean survival time, dose: 25.0 mg/kg/injection, schedule: Q01DX Z (ip), vehicle: carboxymethylcellulose (CMC)) was 114 % of control and the T/C (endpoint: mean survival time, dose: 50.0 mg/kg/injection, schedule: Q01DX Z (ip), vehicle: carboxymethylcellulose (CMC)) was 111 % of control. For the same compound, the T/C (endpoint: mean survival time, dose: 100.0 mg/kg/injection, schedule: Q01DX Z (ip), vehicle: carboxymethylcellulose (CMC)) was 87 % of control.
For `O=NN(CCCl)C(=O)NC1CCC(C(=O)O)CC1` (configuration not stated), the T/C (endpoint: mean survival time, dose: 8.0 mg/kg/injection, schedule: Q01DX001 (ip), vehicle: saline with Tween-80) was 165 % of control, the T/C (endpoint: mean survival time, dose: 26.0 mg/kg/injection, schedule: Q01DX001 (ip), vehicle: saline with Tween-80) was 181 % of control and 206 % of control and the T/C (endpoint: mean survival time, dose: 40.0 mg/kg/injection, schedule: Q01DX001 (ip), vehicle: saline with Tween-80) was 185 % of control and 212 % of control. The T/C (endpoint: mean survival time, dose: 60.0 mg/kg/injection, schedule: Q01DX001 (ip), vehicle: saline with Tween-80) was 204 % of control.
With `Cc1ncc(CNC(=O)N(CCCl)N=O)c(N)n1` the T/C (endpoint: mean survival time, dose: 6.25 mg/kg/injection, schedule: Q01DX001 (ip), vehicle: saline) was 104 % of control, the T/C (endpoint: mean survival time, dose: 6.25 mg/kg/injection, schedule: Q01DX009 (ip), vehicle: saline) was 158 % of control and the T/C (endpoint: mean survival time, dose: 12.5 mg/kg/injection, schedule: Q01DX009 (ip), vehicle: saline) was 160 % of control. The T/C (endpoint: mean survival time, dose: 25.0 mg/kg/injection, schedule: Q01DX001 (ip), vehicle: saline) was 153 % of control, the T/C (endpoint: mean survival time, dose: 50.0 mg/kg/injection, schedule: Q01DX001 (ip), vehicle: saline) was 153 % of control and the T/C (endpoint: mean survival time, dose: 100.0 mg/kg/injection, schedule: Q01DX001 (ip), vehicle: saline) was 104 % of control.
In the case of `O=c1[nH]c(=O)n(C2CC(O)C(CO)O2)cc1F` (configuration not stated), the T/C (endpoint: mean survival time, dose: 86.0 mg/kg/injection, schedule: Q01DX015 (ip), vehicle: saline) is reported as 160 % of control, the T/C (endpoint: mean survival time, dose: 239.0 mg/kg/injection, schedule: Q01DX001 (ip), vehicle: saline) is reported as 109 % of control and the T/C (endpoint: mean survival time, dose: 364.0 mg/kg/injection, schedule: Q01DX001 (ip), vehicle: saline) is reported as 104 % of control. For the same compound, the T/C (endpoint: mean survival time, dose: 543.0 mg/kg/injection, schedule: Q01DX001 (ip), vehicle: saline) was 117 % of control.
